Test results published in patent US20130296311A1, “INHIBITORS OF HCV NS5A” (PRESIDIO PHARMACEUTICALS, INC., priority 2010, published 2013).
pEC50: −log10 of the molar value.

test system: HCV 1b_Huh-Luc/Neo-ET cell line persistently expressing a bicistronic genotype 1b replicon in Huh 7 cells; test: HCV replicon assay (luciferase readout, 72 h); format: cell-based, HCV genotype 1b; conditions: Hepatitis C virus, Huh-7, 72 h, read-out: Inhibition of HCV
Outline: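 Huh 7 cells carrying a bicistronic genotype 1b luciferase/neo replicon received compound in triplicate the day after plating. After 72 h, replicon levels were read as Bright-Glo luciferase activity, expressed as % of control; EC50 was fitted with a four-parameter logistic and determined several times.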

Question: How did the pEC50 turn out when `COC(=O)N[C@H](C(=O)N1CCC[C@H]1c1nc2ccc(C#Cc3ccc4nc([C@@H]5CCCN5C(=O)[C@@H](NC(=O)OC)C(C)C)[nH]c4c3)cc2[nH]1)C(C)C` [Compound 852] was run?
Answer: > 9.00

same assay, conditions: Hepatitis C virus, Huh-7, 72 h, read-out: Inhibition of HCV genotype 1b

Question: With `O=C(N[C@@H](C(=O)N1CCC[C@H]1c1cc(-c2ccc(C#Cc3ccc(-c4cnc([C@@H]5CCCN5C(=O)[C@H](NC(=O)[C@@H]5CCCO5)c5ccccc5)[nH]4)cc3)cc2)n[nH]1)c1ccccc1)[C@@H]1CCCO1` [Compound 214] as the molecule, how does the pEC50 read?
Answer: > 9.00

Question: `COC(=O)N[C@@H](C(=O)N1CCC[C@H]1c1ncc(-c2ccc(C#Cc3ccc(-c4cnc([C@@H]5CCCN5C(=O)NCc5ccccc5)[nH]4)cc3)cc2)[nH]1)c1ccccc1` [Compound 197] was tested. Which pEC50 did it give?
Answer: > 9.00

Question: With `COC(=O)N[C@H](C(=O)N[C@@H](C)c1nc2ccc(C#Cc3ccc(-c4cnc([C@@H]5CCCN5C(=O)[C@@H](NC(=O)OC)C(C)C)[nH]4)cc3)cc2[nH]1)C(C)C` [Compound 867] as the molecule, how does the pEC50 read?
Answer: > 9.00

Question: How did the pEC50 turn out when `O=C(N[C@@H](C(=O)N1CCC[C@H]1c1ncc(-c2ccc3nc(C#Cc4ccc5nc([C@@H]6CCCN6C(=O)[C@H](NC(=O)OC6CCOCC6)c6ccccc6)[nH]c5c4)ccc3c2)[nH]1)c1ccccc1)OC1CCOCC1` [Compound 1110] was run?
Answer: > 9.00

Question: With `O=C(N[C@@H](C(=O)N1CCC[C@H]1c1ncc(C#Cc2ccc(-c3ccc(-c4cnc([C@@H]5CCCN5C(=O)[C@H](NC(=O)C5CC5)c5ccccc5)[nH]4)cc3)cc2)[nH]1)c1ccccc1)C1CC1` [Compound 760] as the molecule, how does the pEC50 read?
Answer: > 9.00

Question: `COC(=O)N[C@H](C(=O)N1CCC[C@H]1c1ncc(-c2ccc(C#Cc3ccc(-c4cnc([C@@H]5CCCN5C(=O)[C@@H](NC(=O)OC)C(C)C)[nH]4)cn3)cc2)[nH]1)C(C)C` [Compound 1009] was tested. Which pEC50 did it give?
Answer: > 9.00

Question: `COCCOc1c(C#Cc2ccc3nc([C@@H]4CCCN4C(=O)[C@@H](NC(=O)OC)C(C)C)[nH]c3c2)ccc(-c2cnc([C@@H]3CCCN3C(=O)[C@H](NC(=O)OC)C(C)C)[nH]2)c1OCCOC` [Compound 1066] was tested. Which pEC50 did it give?
Answer: > 9.00

Question: How did the pEC50 turn out when `COC(=O)N[C@H](C(=O)N1CCC[C@H]1c1ncc(-c2ccc(C#Cc3ccc4nc([C@@H]5CCCN5C(=O)[C@H](NC(=O)OC)C(C)C)[nH]c4c3)cc2)[nH]1)C(C)C` [Compound 1054] was run?
Answer: > 9.00

Question: `COC(=O)N[C@@H](C(=O)N1CCC[C@H]1c1ncc(-c2ccc3nc(C#Cc4ccc5nc([C@@H]6CCCN6C(=O)[C@H](NC(=O)OC)c6ccccc6)[nH]c5c4)ccc3c2)[nH]1)c1ccccc1` [Compound 1109] was tested. Which pEC50 did it give?
Answer: > 9.00

Question: How did the pEC50 turn out when `O=C(N[C@@H](C(=O)N1CCC[C@H]1c1ncc(-c2ccc(C#Cc3ccc(-c4cnc([C@@H]5CCCN5C(=O)[C@H](NC(=O)N5CC[C@H](O)C5)c5ccccc5)[nH]4)cc3)cc2)[nH]1)c1ccccc1)N1CC[C@H](O)C1` [Compound 245] was run?
Answer: > 9.00

Question: With `COC(=O)N[C@H](C(=O)N1CCC[C@H]1c1nc2c([nH]1)-c1ccc(C#Cc3ccc4nc([C@@H]5CCCN5C(=O)[C@@H](NC(=O)OC)C(C)C)[nH]c4c3)cc1CC2)C(C)C` [Compound 1101] as the molecule, how does the pEC50 read?
Answer: > 9.00

Question: How did the pEC50 turn out when `COC(=O)N[C@H](C(=O)N1CCSC[C@H]1c1ncc(-c2ccc(C#Cc3ccc4nc([C@@H]5CCCN5C(=O)[C@@H](NC(=O)OC)C(C)C)[nH]c4c3)cc2)[nH]1)C(C)C` [Compound 1062] was run?
Answer: > 9.00

Question: How did the pEC50 turn out when `C[C@@H](NC(=O)[C@@H]1CCCN1C(=O)[C@H](NC(=O)OC(C)(C)C)c1ccccc1)c1ccc(C#Cc2cnc([C@@H]3CCCN3C(=O)[C@H](NC(=O)OC(C)(C)C)c3ccccc3)[nH]2)cc1` [Compound 129] was run?
Answer: 6.00 to 8.00

Question: `CCN(CC)[C@@H](C(=O)N1CCC[C@H]1c1ncc(C#Cc2ccc(C#Cc3cnc([C@@H]4CCCN4C(=O)[C@H](NC(=O)OC)c4ccccc4)[nH]3)cc2)[nH]1)c1ccccc1` [Compound 315] was tested. Which pEC50 did it give?
Answer: > 9.00

Question: How did the pEC50 turn out when `COC(=O)N[C@H](C(=O)N1CCC[C@H]1c1ncc(-c2ccc(C#Cc3ccc(-c4cnc([C@@H]5CCCN5C(=O)[C@@H](NC(=O)OC)C(C)C)[nH]4)cc3)cc2)[nH]1)C(C)C` [Compound 266] was run?
Answer: > 9.00

Question: `COC(=O)N[C@H](C(=O)N1CCC[C@H]1c1nc2ccc(C#Cc3ccc(-c4cnc([C@@H]5CCCN5C(=O)[C@H](C(C)C)N(C)C)[nH]4)cc3)cc2[nH]1)C(C)C` [Compound 866] was tested. Which pEC50 did it give?
Answer: > 9.00

Question: With `COC(=O)N[C@H](C(=O)N1CCC[C@H]1c1ncc(-c2ccc(C#Cc3ccc4nc([C@@H]5CCCN5C(=O)[C@@H](C(C)C)N(C)C)[nH]c4c3)cc2)[nH]1)C(C)C` [Compound 1020] as the molecule, how does the pEC50 read?
Answer: > 9.00

Question: `COC(=O)N[C@H](C(=O)N[C@@H](C)c1ncc(-c2ccc(C#Cc3ccc(-c4cnc([C@@H]5CCCN5C(=O)[C@@H](c5ccccc5)N(C)C)[nH]4)cc3)cc2)[nH]1)C(C)C` [Compound 965] was tested. Which pEC50 did it give?
Answer: > 9.00

Question: How did the pEC50 turn out when `CCN(CC)[C@@H](C(=O)N1CCC[C@H]1c1ncc(-c2ccc(C#Cc3ccc(-c4cnc([C@@H]5CCCN5C(=O)[C@@H](NC(=O)OC)C(C)C)[nH]4)cc3)cc2)[nH]1)c1ccccc1` [Compound 985] was run?
Answer: > 9.00

Question: How did the pEC50 turn out when `COC(=O)N[C@H](CC(=O)N1CCC[C@H]1c1ncc(-c2ccc(C#Cc3ccc4nc([C@@H]5CCCN5C(=O)C[C@@H](NC(=O)OC)C(C)C)[nH]c4c3)cc2)[nH]1)C(C)C` [Compound 1065] was run?
Answer: 6.00 to 8.00

Question: `COC(=O)N[C@H](C(=O)N1CCC[C@H]1c1ncc(-c2ccc(C#Cc3ccc(-c4cnc([C@@H]5CCCN5C(=O)[C@@H](NC(=O)OC)[C@@H](C)OC)[nH]4)cc3)cc2)[nH]1)[C@@H](C)OC` [Compound 284] was tested. Which pEC50 did it give?
Answer: > 9.00

Question: How did the pEC50 turn out when `COC(=O)N[C@H](C(=O)N1CCC[C@H]1c1nc2ccc3cc(C#Cc4ccc(-c5cnc([C@@H]6CCCN6C(=O)[C@@H](NC(=O)OC)C6CCOCC6)[nH]5)cc4)ccc3c2[nH]1)C(C)C` [Compound 1092] was run?
Answer: > 9.00

Question: `CC(C)[C@@H](NC(=O)OC(C)(C)C)C(=O)N1CCC[C@H]1c1ncc(C#Cc2ccc(C#Cc3cnc([C@@H]4CCCN4C(=O)[C@H](NC(=O)OC(C)(C)C)C(C)C)[nH]3)cc2)[nH]1` [Compound 301] was tested. Which pEC50 did it give?
Answer: < 6.00

Question: With `COC(=O)N[C@H](C(=O)N1CCC[C@H]1c1ncc(-c2ccc(C#Cc3ccc(-c4cnc([C@@H]5CCCN5C(=O)[C@@H](c5ccccc5)N5CCOC5=O)[nH]4)cc3)cc2)[nH]1)C(C)C` [Compound 1007] as the molecule, how does the pEC50 read?
Answer: > 9.00

Question: How did the pEC50 turn out when `COC(=O)N[C@H](C(=O)N1CCC[C@H]1c1nc2ccc(-c3ccc(C#Cc4cnc([C@@H]5CCCN5C(=O)[C@H](NC(=O)OC)c5ccccc5)[nH]4)cc3)cc2[nH]1)C(C)C` [Compound 1085] was run?
Answer: > 9.00

Question: How did the pEC50 turn out when `COC(=O)N[C@H](C(=O)N1CCC[C@H]1c1nc2ccc(C#Cc3ccc(-c4cnc([C@@H]5CCCN5C(=O)[C@H](NC(=O)OC)c5ccccc5)[nH]4)cc3)cc2[nH]1)C(C)C` [Compound 1022] was run?
Answer: > 9.00

Question: How did the pEC50 turn out when `COC(=O)N[C@@H](C(=O)N1CCC[C@H]1c1ncc(-c2ccc(C#Cc3ccc(-c4cnc([C@@H]5CCCN5C(=O)[C@H](NC(=O)N5CCC[C@@H](O)C5)c5ccccc5)[nH]4)cc3)cc2)[nH]1)c1ccccc1` [Compound 264] was run?
Answer: > 9.00

Question: With `COC(=O)N[C@H](C(=O)N1CCC[C@H]1c1nc2c([nH]1)-c1ccc(C#Cc3ccc(-c4cnc([C@@H]5CCCN5C(=O)[C@@H](NC(=O)OC)C5CCOCC5)[nH]4)cc3)cc1CCC2)C(C)C` [Compound 1097] as the molecule, how does the pEC50 read?
Answer: > 9.00

Question: `CC(C)[C@H](NC(=O)N1CCCC1)C(=O)N1CCC[C@H]1c1ncc(-c2ccc(C#Cc3ccc(-c4cnc([C@@H]5CCCN5C(=O)[C@@H](NC(=O)N5CCCC5)C(C)C)[nH]4)cc3)cc2)[nH]1` [Compound 288] was tested. Which pEC50 did it give?
Answer: < 6.00

Question: How did the pEC50 turn out when `COC(=O)N[C@H](C(=O)N1CCC[C@H]1c1ncc(-c2ccc(C#Cc3ccc4nc([C@@H]5CCCN5C(=O)[C@H](C(C)C)N(C)C)[nH]c4c3)cc2)[nH]1)C(C)C` [Compound 1021] was run?
Answer: > 9.00

Question: With `CC[C@H](NC(=O)OC)C(=O)N1CCC[C@H]1c1ncc(-c2ccc(C#Cc3ccc(-c4cnc([C@@H]5CCCN5C(=O)[C@H](CC)NC(=O)OC)[nH]4)cc3)cc2)[nH]1` [Compound 960] as the molecule, how does the pEC50 read?
Answer: > 9.00

Question: `COC(=O)N[C@H](C(=O)N1CCC[C@H]1c1ncc(-c2ccc(C#Cc3ccc(-c4cnc([C@@H]5CCCN5C(=O)[C@@H](NC(=O)OC)C(C)(C)O)[nH]4)cc3)cc2)[nH]1)C(C)C` [Compound 994] was tested. Which pEC50 did it give?
Answer: > 9.00

Question: How did the pEC50 turn out when `CC(C)OC(=O)N[C@@H](C(=O)N1CCC[C@H]1c1ncc(-c2ccc(C#Cc3ccc(-c4cnc([C@@H]5CCCN5C(=O)[C@H](NC(=O)OC(C)C)c5ccccc5)[nH]4)cc3)cc2)[nH]1)c1ccccc1` [Compound 227] was run?
Answer: > 9.00

Question: How did the pEC50 turn out when `CC(C)[C@@H](NC(=O)C1CC1)C(=O)N1CCC[C@H]1c1ncc(C#Cc2ccc(C#Cc3cnc([C@@H]4CCCN4C(=O)[C@H](NC(=O)C4CC4)C(C)C)[nH]3)cc2)[nH]1` [Compound 302] was run?
Answer: < 6.00

Question: How did the pEC50 turn out when `CN1CCN(C(=O)N[C@@H](C(=O)N2CCC[C@H]2c2ncc(C#Cc3ccc(-c4cnc([C@@H]5CCCN5C(=O)[C@H](NC(=O)N5CCN(C)CC5)c5ccccc5)[nH]4)cc3)[nH]2)c2ccccc2)CC1` [Compound 118] was run?
Answer: 6.00 to 8.00

same assay, conditions: Hepatitis C virus, Huh-7, read-out: Inhibition of HCV genotype 1b

Question: With `COC(=O)N[C@H](C(=O)N1CCC[C@H]1c1nc2c([nH]1)-c1ccc(C#Cc3ccc4nc([C@@H]5CCCN5C(=O)[C@@H](NC(=O)OC)C5CCOCC5)[nH]c4c3)cc1CCC2)C(C)C` [Compound 1280] as the molecule, how does the pEC50 read?
Answer: > 9.00

Question: How did the pEC50 turn out when `COC(=O)N[C@H](C(=O)N1CCC[C@H]1c1nc2ccc(C#Cc3ccc4c(ccc5nc([C@@H]6CCCN6C(=O)[C@@H](NC(=O)OC)C(C)C)[nH]c54)c3)cc2[nH]1)C(C)C` [Compound 1273] was run?
Answer: > 9.00

Question: How did the pEC50 turn out when `CC[C@H](C)[C@H](NC(=O)OC)C(=O)N1CCC[C@H]1c1nc(C(F)(F)F)c(C#Cc2ccc3cc(-c4cnc([C@@H]5CCCN5C(=O)[C@@H](NC(=O)OC)[C@@H](C)OC)[nH]4)ccc3c2)[nH]1` [Compound 1262] was run?
Answer: > 9.00

Question: How did the pEC50 turn out when `COC(=O)N[C@H](C(=O)N1CCC[C@H]1c1ncc(-c2ccc(C#Cc3ccc4nc([C@@H]5CCCN5C(=O)[C@@H](NC(=O)OC)[C@@H](C)OC)[nH]c4n3)cc2)[nH]1)[C@@H](C)OC` [Compound 1252] was run?
Answer: > 9.00

Question: How did the pEC50 turn out when `COC(=O)NC(C(=O)N1CCC[C@H]1c1nc2ccc(C#Cc3ccc4cc(-c5cnc([C@@H]6CCCN6C(=O)[C@H](NC(=O)OC6CCOCC6)c6ccccc6)[nH]5)ccc4n3)cc2[nH]1)C(C)C` (some centres unmarked) [Compound 1291] was run?
Answer: > 9.00
